Results from PubChem BioAssay AID1259407 (Chemical Carcinogenesis Research Information System (CCRIS), 2018).
Calls of active or inactive are those of the source. The rule behind the calls is not given here.

Tested on: CCRIS mutagenicity, Ames/micronucleus/aberration tests
Assay: CCRIS mutagenicity studies
[1] = Test System: AMES SALMONELLA TYPHIMURIUM, Strain/Indicator: TA97, Metabolic Activation: HAMSTER, LIVER, S-9, AROCLOR 1254 (10 OR 30%), Method: PREINCUBATION
[2] = Test System: AMES SALMONELLA TYPHIMURIUM, Strain/Indicator: TA97, Metabolic Activation: NONE, Method: PREINCUBATION
[3] = Test System: AMES SALMONELLA TYPHIMURIUM, Strain/Indicator: TA97, Metabolic Activation: RAT, LIVER, S-9, AROCLOR 1254 (10 OR 30%), Method: PREINCUBATION
[4] = Test System: AMES SALMONELLA TYPHIMURIUM, Strain/Indicator: TA98, Metabolic Activation: HAMSTER, LIVER, S-9, AROCLOR 1254 (10%), Method: PREINCUBATION
[5] = Test System: AMES SALMONELLA TYPHIMURIUM, Strain/Indicator: TA98, Metabolic Activation: HAMSTER, LIVER, S-9, AROCLOR 1254 (30%), Method: PREINCUBATION
[6] = Test System: AMES SALMONELLA TYPHIMURIUM, Strain/Indicator: TA98, Metabolic Activation: NONE, Method: PREINCUBATION
[7] = Test System: AMES SALMONELLA TYPHIMURIUM, Strain/Indicator: TA100, Metabolic Activation: HAMSTER, LIVER, S-9, AROCLOR 1254 (10 OR 30%), Method: PREINCUBATION
[8] = Test System: AMES SALMONELLA TYPHIMURIUM, Strain/Indicator: TA100, Metabolic Activation: NONE, Method: PREINCUBATION
[9] = Test System: AMES SALMONELLA TYPHIMURIUM, Strain/Indicator: TA100, Metabolic Activation: RAT, LIVER, S-9, AROCLOR 1254 (10 OR 30%), Method: PREINCUBATION
[10] = Test System: AMES SALMONELLA TYPHIMURIUM, Strain/Indicator: TA1535, Metabolic Activation: NONE, Method: PREINCUBATION
[11] = Test System: AMES SALMONELLA TYPHIMURIUM, Strain/Indicator: TA1535, Metabolic Activation: RAT, LIVER, S-9, AROCLOR 1254 (10 OR 30%), Method: PREINCUBATION
[12] = Test System: AMES SALMONELLA TYPHIMURIUM, Strain/Indicator: TA1538, Metabolic Activation: NONE, Method: STANDARD PLATE
[13] = Test System: AMES SALMONELLA TYPHIMURIUM, Strain/Indicator: TA1538, Metabolic Activation: RAT, LIVER, S-9, AROCLOR 1254, Method: STANDARD PLATE
[14] = Test System: AMES SALMONELLA TYPHIMURIUM, Strain/Indicator: TA98, Metabolic Activation: NONE, Method: STANDARD PLATE
[15] = Test System: AMES SALMONELLA TYPHIMURIUM, Strain/Indicator: TA100, Metabolic Activation: NONE, Method: STANDARD PLATE
[16] = Test System: AMES SALMONELLA TYPHIMURIUM, Strain/Indicator: TA98, Metabolic Activation: RAT, LIVER, S-9, AROCLOR 1254, Method: STANDARD PLATE

Cc1c2ccccc2c(CO)c2c3c(ccc12)[C@@H](O)[C@H](O)C=C3
mutagenic call (Test System: CHINESE HAMSTER V-79, Strain/Indicator: V-79/6-THIOGUANINE, Metabolic Activation: CELL-MEDIATED, Method: STANDARD PLATE): active; positive
mutagenic call (Test System: CHINESE HAMSTER V-79, Strain/Indicator: V-79/OUABAIN, Metabolic Activation: CELL-MEDIATED, Method: STANDARD PLATE): active; positive

CCN(CO)N=O
mutagenic call (Test System: CHINESE HAMSTER V-79, Strain/Indicator: V-79/OUABAIN, Metabolic Activation: NONE): active; positive

c1ccc2c(c1)ccc1nc3c(ccc4ccccc43)cc12
mutagenic call (Test System: AMES SALMONELLA TYPHIMURIUM, Strain/Indicator: TA100, Metabolic Activation: RAT, LIVER, S-9, PHENOBARBITAL AND 5,6-BENZOFLAVONE, Method: STANDARD PLATE): active; positive

Clc1ccc2ccccc2c1
mutagenic call [1]: inactive; negative
mutagenic call [2]: inactive; negative
mutagenic call [3]: inactive; negative
mutagenic call [4]: inactive; negative
mutagenic call [5]: inactive; negative
mutagenic call [6]: inactive; negative
mutagenic call (Test System: AMES SALMONELLA TYPHIMURIUM, Strain/Indicator: TA98, Metabolic Activation: RAT, LIVER, S-9, AROCLOR 1254 (10 OR 30%), Method: PREINCUBATION): inactive; negative
mutagenic call [7]: inactive; negative
mutagenic call [8]: inactive; negative
mutagenic call [9]: inactive; negative
mutagenic call (Test System: AMES SALMONELLA TYPHIMURIUM, Strain/Indicator: TA1535, Metabolic Activation: HAMSTER, LIVER, S-9, AROCLOR 1254 (10 OR 30%), Method: PREINCUBATION): inactive; negative
mutagenic call [10]: inactive; negative
mutagenic call [11]: inactive; negative

Nc1cc(Cl)c(Cl)cc1Cl
mutagenic call (Test System: UDS RODENT HEPATOCYTES, Strain/Indicator: THY INCORP (NON-S-PHASE), Metabolic Activation: NONE, Method: AUTORADIOGRAPHY): inactive; negative

CCCCCCC(CCCC)COc1ccc(-c2ccc(-c3ccc(-c4ccc(OCC(CCCC)CCCCCC)cc4)cc3)cc2)cc1 (stereo not given)
mutagenic call [12]: inactive; negative
mutagenic call [13]: inactive; negative

C=C(C)C(=O)OCCCCCCCC
mutagenic call [1]: inactive; negative
mutagenic call [2]: inactive; negative
mutagenic call [3]: inactive; negative
mutagenic call [4]: inactive; negative
mutagenic call [5]: inactive; negative
mutagenic call [6]: inactive; negative
mutagenic call (Test System: AMES SALMONELLA TYPHIMURIUM, Strain/Indicator: TA98, Metabolic Activation: RAT, LIVER, S-9, AROCLOR 1254 (10%), Method: PREINCUBATION): inactive; negative
mutagenic call (Test System: AMES SALMONELLA TYPHIMURIUM, Strain/Indicator: TA98, Metabolic Activation: RAT, LIVER, S-9, AROCLOR 1254 (30%), Method: PREINCUBATION): inactive; negative
mutagenic call [7]: inactive; negative
mutagenic call [8]: inactive; negative
mutagenic call [9]: inactive; negative
mutagenic call (Test System: AMES SALMONELLA TYPHIMURIUM, Strain/Indicator: TA1535, Metabolic Activation: HAMSTER, LIVER, AROCLOR 1254 (10 OR 30%), Method: PREINCUBATION): inactive; negative
mutagenic call [10]: inactive; negative
mutagenic call [11]: inactive; negative
mutagenic call (Test System: AMES SALMONELLA TYPHIMURIUM, Strain/Indicator: TA1537, Metabolic Activation: HAMSTER, LIVER, S-9, AROCLOR 1254 (10%), Method: PREINCUBATION): inactive; negative
mutagenic call (Test System: AMES SALMONELLA TYPHIMURIUM, Strain/Indicator: TA1537, Metabolic Activation: NONE, Method: PREINCUBATION): inactive; negative
mutagenic call (Test System: AMES SALMONELLA TYPHIMURIUM, Strain/Indicator: TA1537, Metabolic Activation: RAT, LIVER, S-9, AROCLOR 1254 (10%), Method: PREINCUBATION): inactive; negative

C/C=C\C1=CC(=O)[C@]23C[C@H]2C(C)(C)O[C@]3(O)C1=O
mutagenic call (Test System: AMES SALMONELLA TYPHIMURIUM, Strain/Indicator: TA97, Metabolic Activation: NONE): inactive; negative
mutagenic call (Test System: AMES SALMONELLA TYPHIMURIUM, Strain/Indicator: TA98, Metabolic Activation: NONE): inactive; negative
mutagenic call (Test System: AMES SALMONELLA TYPHIMURIUM, Strain/Indicator: TA100, Metabolic Activation: NONE): active; positive
mutagenic call (Test System: AMES SALMONELLA TYPHIMURIUM, Strain/Indicator: TA102, Metabolic Activation: NONE): active; positive

O=[N+]([O-])c1ccc(-c2nc(N(CCO)CCO)c3ccccc3n2)s1
mutagenic call [14]: active; positive
mutagenic call [15]: active; positive

OC[C@H]1O[C@@](CO)(O[C@H]2O[C@H](CO)[C@@H](O)[C@H](O)[C@H]2O)[C@@H](O)[C@@H]1O
mutagenic call (End Point: IN VITRO CHROMOSOMAL ABERRATIONS, Test System: CHO-WBL CELLS, Metabolic Activation: NONE): active; positive (structural changes); osmolality of solution decisive factor
mutagenic call (Test System: MOUSE LYMPHOMA, Strain/Indicator: L5178Y (TK+/TK-), Metabolic Activation: NONE, Method: SUSPENSION/PLATE): inactive; negative
mutagenic call (Test System: MOUSE LYMPHOMA, Strain/Indicator: L5178Y (TK+/TK-), Metabolic Activation: RAT, LIVER, S-9, AROCLOR 1254, Method: SUSPENSION/PLATE): inactive; negative
mutagenic call (Test System: MOUSE LYMPHOMA, Strain/Indicator: L5178Y (TK+/TK-), Metabolic Activation: RAT, LIVER, S-9, Method: SUSPENSION/PLATE): inactive; negative

CC(C)=CCc1ccc(O)c2c(=O)c3c(O)c4c(cc3oc12)O[C@H]1OC=C[C@@]41O
mutagenic call [14]: active; positive
mutagenic call [16]: active; positive
mutagenic call [15]: active; positive
mutagenic call (Test System: AMES SALMONELLA TYPHIMURIUM, Strain/Indicator: TA100, Metabolic Activation: RAT, LIVER, S-9, AROCLOR 1254, Method: STANDARD PLATE): active; positive

CC(C)OC(=O)/C(Cl)=C(/Cl)C=O
mutagenic call [15]: active; positive

O=CN(O)c1ccc([N+](=O)[O-])cc1
mutagenic call (Test System: AMES SALMONELLA TYPHIMURIUM, Strain/Indicator: TA98(NR), Metabolic Activation: NONE, Method: STANDARD PLATE): active; positive
mutagenic call (Test System: AMES SALMONELLA TYPHIMURIUM, Strain/Indicator: TA98(NR), Metabolic Activation: RAT, LIVER, S-9, AROCLOR 1254, Method: STANDARD PLATE): active; positive
mutagenic call [14]: active; positive
mutagenic call [16]: active; positive
mutagenic call (Test System: AMES SALMONELLA TYPHIMURIUM, Strain/Indicator: TA1538(NR), Metabolic Activation: NONE, Method: STANDARD PLATE): active; positive
mutagenic call (Test System: AMES SALMONELLA TYPHIMURIUM, Strain/Indicator: TA1538(NR), Metabolic Activation: RAT, LIVER, S-9, AROCLOR 1254, Method: STANDARD PLATE): active; positive
mutagenic call [12]: active; positive
mutagenic call [13]: active; positive
